Test results: BigSolDB 2.1

CC(C)(C)c1ccc(OP2OCC3(CO2)COP(Oc2ccc(C(C)(C)C)cc2C(C)(C)C)OC3)c(C(C)(C)C)c1 (stereo not drawn)
Details	solubility (mole fraction)
in ethanol, 303.25 K	0.000185
in ethanol, 308.15 K	0.000249
in ethanol, 312.85 K	0.000324
in ethanol, 318.15 K	0.000365
in ethanol, 322.95 K	0.000426
in ethanol, 328.15 K	0.000534
in ethanol, 332.15 K	0.000669
in isopropanol, 304.15 K	0.000296
in isopropanol, 308.35 K	0.000371
in isopropanol, 313.15 K	0.000473
in isopropanol, 318.25 K	0.000657
in isopropanol, 323.15 K	0.000752
in isopropanol, 327.95 K	0.00113
in isopropanol, 333.35 K	0.00163
in methanol, 304.65 K	5.05e-05
in methanol, 308.25 K	5.84e-05
in methanol, 312.95 K	7.84e-05
in methanol, 318.15 K	0.000119
in methanol, 322.65 K	0.000154
in n-propanol, 303.15 K	0.000477
in n-propanol, 308.15 K	0.000582
in n-propanol, 313.05 K	0.000735
in n-propanol, 318.25 K	0.000925
in n-propanol, 322.75 K	0.00113
in n-propanol, 327.95 K	0.00146
in n-propanol, 333.15 K	0.00182
in tert-butanol, 302.95 K	0.000674
in tert-butanol, 308.05 K	0.000853
in tert-butanol, 313.15 K	0.0012
in tert-butanol, 318.45 K	0.00157
in tert-butanol, 323.05 K	0.00222
in tert-butanol, 328.45 K	0.00302
in tert-butanol, 332.95 K	0.00379
